Values of other authors as cited in EP0530832A1, “Method for processing a silver halide color photographic light-sensitive material” (KONICA CORPORATION, priority 1991, dated 1993).

Tested on: rats
Conditions: rats in an environment containing 15 ppm of formalin

Compound: C=O [formalin]
- nasal cancers: developed nasal cancers
